Measurements as given in patent US7767685B2, “Adenosine A2B receptor antagonists” (King Pharmaceuticals Research and Development, Inc., priority 2006, dated 2010).

What was measured:
[1] = molecular target: T1, human A2A adenosine receptors (Homo sapiens, UniProt P29274); assay: Displacement of [3H]ZM241385 binding at human A2A adenosine receptors expressed in CHO cells; conditions: [3H]ZM241385 displacement, n = 3-6, geometric mean (95% confidence limits), read-out: Ki hA2A
T1 construct: expressed in transfected cells; host or cells: CHO cells (membranes)
T1 sequence (P29274 whole entry): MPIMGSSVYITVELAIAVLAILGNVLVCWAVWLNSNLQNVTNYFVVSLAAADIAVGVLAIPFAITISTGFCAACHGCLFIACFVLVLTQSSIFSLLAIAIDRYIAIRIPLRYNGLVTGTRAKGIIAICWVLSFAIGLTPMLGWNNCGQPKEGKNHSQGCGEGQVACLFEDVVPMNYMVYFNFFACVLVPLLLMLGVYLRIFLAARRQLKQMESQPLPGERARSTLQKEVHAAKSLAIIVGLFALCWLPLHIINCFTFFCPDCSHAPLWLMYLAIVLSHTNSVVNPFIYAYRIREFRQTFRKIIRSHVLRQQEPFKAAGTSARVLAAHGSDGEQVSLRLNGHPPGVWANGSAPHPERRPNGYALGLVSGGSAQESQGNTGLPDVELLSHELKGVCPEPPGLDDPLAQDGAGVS
Method: The human adenosine receptors have been transfected in CHO cells according with the method previously described by Klotz et al. (Naunyn-Schmied. Arch Pharm. 1998, 357: 1-9). Briefly, the cells are grown adherently and maintained in Dulbecco's Modified Eagles Medium with nutrient mixture F12 (DMEM/F12) without nucleosides, containing 10% fetal calf serum, penicillin (100 U/mL), streptomycin (100 μg/mL), L-glutamine (2 mM) and Geneticin (G418, 0.2 mg/ml) at 37° C. in 5% CO2/95% air. For membrane preparation the culture medium is removed and the cells are washed with phosphate-buffered saline and scraped off T75 flasks in ice-cold hypo tonic buffer (5 mM Tris HCl, 1 mM EDTA, pH 7.4). The cell suspension is homogenized with Polytron, the homogenate is spun for 10 min at 1000×g and the supernatant is then centrifuged for 30 min at 100,000×g. The membrane pellet is suspended in 50 mM Tris HCl buffer (pH 7.4) for A1 adenosine receptors, in 50 mM Tris HCl, 10 mM MgCl2 (pH 7.4) for A2A adenosine receptors, in 50 mM Tris HCl, 10 mM MgCl2, 1 mM EDTA (pH 7.4) for A2B and A3 adenosine receptors.
All new synthesized compounds have been tested to evaluate their affinity to human A1, A2A, A2B and A3 adenosine receptors. Displacement experiments of [^3H]-DPCPX to CHO cells transfected with the human recombinant A1 adenosine receptors are performed for 120 min at 25° C. incubating diluted membranes (50 μg of protein/assay) and at least 6-8 different concentrations of examined antagonists (Varani et al., Mol. Pharmacol., 2000, 57: 968-975). Non-specific binding is determined in the presence of 10 μM of CHA and this is always ≦10% of the total binding. Binding of [^3H]-ZM 241385 to CHO cells transfected with the human recombinant A2A adenosine receptors is performed using a suspension of membranes (50 μg of protein/assay) and at least 6-8 different concentrations of studied antagonists for an incubation time of 60 min at 4° C. Non-specific binding is determined in the presence of 1 μM ZM 241385 and is about 20% of total binding. Competition binding experiments of [^3H]-MRE 2029F20 to CHO cells transfected with the human recombinant A2B adenosine receptors are carried out incubating for 120 min at 4° C. diluted membranes (50 μg of protein/assay) and at least 6-8 different concentrations of examined compounds. Non-specific binding is defined as binding in the presence of 1 μM MRE 3029F20 and is about 25% of total binding. Competition binding experiments of [^3H]-MRE 3008F20 to CHO cells transfected with the human recombinant A3 adenosine receptors^5 are carried out incubating for 120 min at 4° C. diluted membranes (50 μg of protein/assay) and at least 6-8 different concentrations of examined ligands. Non-specific binding is defined as binding in the presence of 1 μM MRE 3008F20 and is about 25% of total binding. Bound and free radioactivity are separated by filtering the assay mixture through Whatman GF/B glass fiber filters using a Micro-Mate 196 cell harvester (Packard Instrument Co.). The filter bound radioactivity is counted on a Top Count (efficiency 57%) with Micro-Scint 20.
(§1) The protein concentration is determined according to a Bio-Rad method (Bradford, Anal Biochem. 1976, 72: 248-254) with bovine albumin as a standard reference. Inhibitory binding constant, Ki, values are calculated from those of IC50 according to Cheng & Prusoff equation (Biochem. Pharmacol 1973, 22: 3099-3108): Ki=IC50/(1+[C*]/KD*) where [C*] is the concentration of the radioligand and KD* its dissociation constant. A weighted non linear least-squares curve fitting program LIGAND (Munson et al., Anal. Biochem 1980, 107: 220-239) is used for computer analysis of inhibition experiments Data are expressed as geometric mean with 95% confidence limits in parentheses. Examples of Animal Models

[2] = molecular target: T2, human A2B adenosine receptors (Homo sapiens, UniProt P29275); assay: cAMP assay in CHO cells expressing human A2B adenosine receptors (antagonism of NECA-induced cAMP); type: cell-based; conditions: antagonism of NECA (100 nM)-induced cAMP, geometric mean (95% confidence limits), read-out: IC50 hA2B (cAMP assay)
T2 construct: expressed in transfected cells; host or cells: CHO cells (whole cells)
T2 sequence (P29275 1-332): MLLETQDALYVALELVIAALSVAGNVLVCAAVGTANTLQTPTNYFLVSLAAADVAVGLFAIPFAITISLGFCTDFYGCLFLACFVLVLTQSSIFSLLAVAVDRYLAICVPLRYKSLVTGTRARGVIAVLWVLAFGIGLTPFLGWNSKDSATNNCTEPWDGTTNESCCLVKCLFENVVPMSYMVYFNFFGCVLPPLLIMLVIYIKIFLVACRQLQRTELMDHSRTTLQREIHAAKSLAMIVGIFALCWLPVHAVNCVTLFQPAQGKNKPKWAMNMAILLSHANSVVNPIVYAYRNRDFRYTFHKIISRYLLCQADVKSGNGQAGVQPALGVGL
Method: Measurement of Cyclic AMP Levels in CHO Cells Transfected with Human A2B Adenosine Receptors
CHO cells transfected with human A2B adenosine receptors are washed with phosphate-buffered saline, diluted trypsine and centrifuged for 10 min at 200 g. The pellet containing the CHO cells (1×10^6 cells/assay) is suspended in 0.5 mL of incubation mixture: NaCl 150 mM, KCl 2.7 mM, NaH2PO4 0.37 mM, MgSO4 1 mM, CaCl2 1 mM, Hepes 5 mM, MgCl2 10 mM, glucose 5 mM, pH 7.4 at 37° C. Then 2.0 IU/mL adenosine deaminase and 0.5 mM 4-(3-butoxy-4-methoxybenzyl)-2-imidazolidinone (Ro 20-1724) as phosphodiesterase inhibitor are added and preincubated for 10 min a shaking bath at 37° C. The potency of antagonists studied are determined by antagonism of NECA (100 nM)-induced stimulation of cyclic AMP levels. The reaction is terminated by the addition of cold 6% thrichloroacetic acid (TCA). The TCA suspension is centrifuged at 2000 g for 10 min at 4° C. and the supernatant is extracted four times with water saturated diethyl ether. The final aqueous solution is tested for cyclic AMP levels by a competition protein binding assay. Samples of cyclic AMP standard ([…]) are added to each test tube containing the incubation buffer (trizma base 0.1 M, aminophylline 8.0 mM, 2-mercaptoethanol 6.0 mM (pH 7.4) and [^3H]cyclic AMP in a total volume of 0.5 mL. The binding protein previously prepared from beef adrenals, is added to the samples previously incubated at 4° C. for 150 min, and after the addition of charcoal are centrifuged at 2000 g for 10 min. The clear supernatant is counted with 4 mL of Atomlight liquid scintillator and counted in a Tri Carb Packard 2500 TR scintillation counter.
as §1

| Ki [1] [nM] | IC50 [2] [nM] | Structure (SMILES) |
| --- | --- | --- |
| > 1000 | 58 | CCCn1c(=O)c2[nH]c(-c3cc(C)n(CC(=O)Nc4ccccc4)n3)nc2n(CCC)c1=O [Example 1, 2-[3-(2,6-Dioxo-1,3-dipropyl-2,3,6,7-tetrahydro-1H-purin-8-yl)-5-methyl-pyrazol-1-yl]-N-phenyl-acetamide] |
| > 1000 | 115 | CCCn1c(=O)c2[nH]c(-c3cc(C)n(CC(=O)Nc4ccc(I)cc4)n3)nc2n(CCC)c1=O [Example 2, 2-[3-(2,6-Dioxo-1,3-dipropyl-2,3,6,7-tetrahydro-1H-purin-8-yl)-5-methyl-pyrazol-1-yl]-N-(4-iodophenyl)-acetamide] |
| > 1000 | 68 | CCCn1c(=O)c2[nH]c(-c3cc(C)n(CC(=O)Nc4ccc(F)cc4)n3)nc2n(CCC)c1=O [Example 5, 2-[3-(2,6-Dioxo-1,3-dipropyl-2,3,6,7-tetrahydro-1H-purin-8-yl)-5-methyl-pyrazol-1-yl]-N-(4-fluoro-phenyl)-acetamide] |
| > 1000 | 61 | CCCn1c(=O)c2[nH]c(-c3cc(C)n(CC(=O)Nc4ccc(OC)cc4)n3)nc2n(CCC)c1=O [Example 6, 2-[3-(2,6-Dioxo-1,3-dipropyl-2,3,6,7-tetrahydro-1H-purin-8-yl)-5-methyl-pyrazol-1-yl]-N-(4-methoxyphenyl)-acetamide] |
| > 1000 | 200 | CCCn1c(=O)c2[nH]c(-c3cc(C)n(CC(=O)Nc4ccc(C)c(C)c4)n3)nc2n(CCC)c1=O [Example 7, 2-[3-(2,6-Dioxo-1,3-dipropyl-2,3,6,7-tetrahydro-1H-purin-8-yl)-5-methyl-pyrazol-1-yl]-N-(3,4-dimethylphenyl)-acetamide] |
| > 1000 | > 1000 | CCCn1c(=O)c2[nH]c(-c3cc(C)n(CC(=O)Nc4ccc(C(C)CC)cc4)n3)nc2n(CCC)c1=O (stereo not shown) [Example 12, 2-[3-(2,6-Dioxo-1,3-dipropyl-2,3,6,7-tetrahydro-1H-purin-8-yl)-5-methyl-pyrazol-1-yl]-N-(4-sec-butylphenyl)-acetamide] |
| > 1000 | 106 | CCCn1c(=O)c2[nH]c(-c3cc(C)n(CC(=O)Nc4cccc(Cl)c4)n3)nc2n(CCC)c1=O [Example 15, 2-[3-(2,6-Dioxo-1,3-dipropyl-2,3,6,7-tetrahydro-1H-purin-8-yl)-5-methyl-pyrazol-1-yl]-N-(3-chlorophenyl)-acetamide] |
| > 1000 | 212 | CCCn1c(=O)c2[nH]c(-c3cc(C)n(CC(=O)Nc4ccc(C)cc4)n3)nc2n(CCC)c1=O [Example 17, 2-[3-(2,6-Dioxo-1,3-dipropyl-2,3,6,7-tetrahydro-1H-purin-8-yl)-5-methyl-pyrazol-1-yl]-N-p-tolyl-acetamide] |

More lines, now with the values behind:

| Structure (SMILES) | Ki [1] [nM] | IC50 [2] [nM] |
| --- | --- | --- |
| CCCn1c(=O)c2[nH]c(-c3cc(C)n(CC(=O)Nc4ccc(OC)c(OC)c4)n3)nc2n(CCC)c1=O [Example 8, 2-[3-(2,6-Dioxo-1,3-dipropyl-2,3,6,7-tetrahydro-1H-purin-8-yl)-5-methyl-pyrazol-1-yl]-N-(3,4-dimethoxyphenyl)-acetamide] | > 1000 | 222 |
| CCCn1c(=O)c2[nH]c(-c3ccn(CC(=O)Nc4ccc(Cl)cc4)n3)nc2n(CCC)c1=O [Example 10, 2-[3-(2,6-Dioxo-1,3-dipropyl-2,3,6,7-tetrahydro-1H-purin-8-yl)-pyrazol-1-yl]-N-(4-chloro-phenyl)-acetamide] | > 1000 | 80 |
| CCCn1c(=O)c2[nH]c(-c3cc(C)n(CC(=O)Nc4cccc(OC)c4)n3)nc2n(CCC)c1=O [Example 14, 2-[3-(2,6-Dioxo-1,3-dipropyl-2,3,6,7-tetrahydro-1H-purin-8-yl)-5-methyl-pyrazol-1-yl]-N-(3-methoxylphenyl)-acetamide] | > 1000 | 266 |
| CCCn1c(=O)c2[nH]c(-c3cc(C)n(CC(=O)Nc4ccc(Cl)c(Cl)c4)n3)nc2n(CCC)c1=O [Example 16, 2-[3-(2,6-Dioxo-1,3-dipropyl-2,3,6,7-tetrahydro-1H-purin-8-yl)-5-methyl-pyrazol-1-yl]-N-(3,4-dichlorophenyl)-acetamide] | > 1000 | 188 |
| CCCn1c(=O)c2[nH]c(-c3nn(CC(=O)Nc4ccc(Cl)cc4)c(C)c3Cl)nc2n(CCC)c1=O [Example 18, 2-[4-Chloro-3-(2,6-dioxo-1,3-dipropyl-2,3,6,7-tetrahydro-1H-purin-8-yl)-5-methyl-pyrazol-1-yl]-N-(4-chlorophenyl)-acetamide] | > 1000 | > 1000 |
| CCCn1c(=O)c2[nH]c(-c3nn(CC(=O)Nc4ccc(Cl)cc4)c(C)c3Br)nc2n(CCC)c1=O [Example 19, 2-[4-Bromo-3-(2,6-dioxo-1,3-dipropyl-2,3,6,7-tetrahydro-1H-purin-8-yl)-5-methyl-pyrazol-1-yl]-N-(4-chlorophenyl)-acetamide] | > 1000 | > 1000 |
